Counter-ions that a name gives are not always drawn.

For three molecules, IC50 and MIC results are on record in patent US20060258571A1, “Antibacterial ester macrocycles” (priority 2002, published 2006).

The subject of assay [1] is S. aureus 133 Translation. The assay can be described thus: In vitro transcription-translation with S. aureus extracts. The class given is biochemical. Particulars: S30 extract, plasmid p1a template, firefly luciferase, 30° C. 60 min. An excerpt:
(§1) In Vitro Transcription-Translation with S. aureus Extracts
(§2) Construction of an S. aureus Luciferase Reporter Plasmid
(§3) A reporter plasmid which can be used in an in vitro transcription-translation assay for S. aureus is constructed by using the plasmid pBESTluc (Promega Corporation, USA). The E. coli tac promoter present in this plasmid in front of the firefly luciferase is replaced by the capA1 promoter with appropriate Shine-Dalgarno sequence from S. aureus. The primers CAPFor 5′-CGGCCAAGCTTACTCGGAT-[…] […]-3′ and CAPRev 5′-[…]-3′ are used for this. The primer CAPFor contains the capA1 promoter, the ribosome binding site and the 5′ region of the luciferase gene. After PCR using pBESTluc as template it is possible to isolate a PCR product which contains the firefly luciferase gene with the fused capA1 promoter. This is, after restriction with ClaI and HindIII, ligated into the vector pBESTluc which has likewise been digested with ClaI and HindIII. The resulting plasmid p1a is able to replicate in E. coli and be used as template in the S. aureus in vitro transcription-translation assay.
(§4) Preparation of S30 Extracts from S. aureus
(§5) Six liters of BHI medium are inoculated with a 250 ml overnight culture of an S. aureus strain and allowed to grow at 37° C. until the OD600 nm is 2-4. The cells are harvested by centrifugation and washed in 500 ml of cold buffer A (10 mM Tris acetate, pH 8.0, 14 mM Mg acetate, 1 mM DTT, 1 M KCl). After renewed centrifugation, the cells are washed in 250 ml of cold buffer A with 50 mM KCl, and the resulting pellets are frozen at −20° C. for 60 min. The pellets are thawed on ice in 30 to 60 min and taken up to a total volume of 99 ml in buffer B (10 mM Tris acetate, pH 8.0, 20 mM Mg acetate, 1 mM DTT, 50 mM KCl). 1.5 ml portions of lysostaphin (0.8 mg/ml) in buffer B are each introduced into 3 precooled centrifuge cups and each mixed with 33 ml of the cell suspension. The samples are incubated at 37° C., shaking occasionally, for 45 to 60 min, before 150 μl of a 0.5 M DTT solution are added. The lyzed cells are centrifuged at 30 000×g and 4° C. for 30 min. The cell pellet is taken up in buffer B and then centrifuged again under the same conditions, and the collected supernatants are combined. […]
(§6) Inhibition of protein biosynthesis of the compounds can be shown in an in vitro transcription-translation assay. […] The activity of the resulting luciferase can be detected by luminescence measurement. […]

Assay [2] has as its system S. aureus 133. The assay can be described thus: Minimum inhibitory concentration (MIC), liquid dilution test. The class given is cell-based. Particulars: minimal medium with 0.4% BH broth, 37° C., 18-24 h. An excerpt:
(§7) Determination of the Minimum Inhibitory Concentration (MIC):
(§8) The inhibitor concentration can in these cases be determined by standard microbiological methods (see, for example, The National Committee for Clinical Laboratory Standards. Methods for dilution antimicrobial susceptibility tests for bacteria that grow aerobically; approved standard-fifth edition. NCCLS document M7-A5 [ISBN 1-56238-394-9]. NCCLS, 940 West Valley Road, Suite 1400, Wayne, Pa. 19087-1898 USA, 2000). The MIC of the compounds of the invention is determined in the liquid dilution test on the 96-well microtiter plate scale. The bacterial microbes are cultivated in a minimal medium (18.5 mM Na2HPO4, 5.7 mM KH2PO4, 9.3 mM NH4Cl, 2.8 mM MgSO4, 17.1 mM NaCl, 0.033 μg/ml thiamine hydrochloride, 1.2 μg/ml nicotinic acid, 0.003 μg/ml biotin, 1% glucose, 25 μg/ml of each proteinogenic amino acid with the exception of phenylalanine; [H.-P. Kroll; unpublished]) with addition of 0.4% BH broth (test medium). In the case of Enterococcus faecalis ICB 27159, heat-inactivated fetal calf serum (FCS; GibcoBRL, Germany) is added to the test medium in a final concentration of 10%. Overnight cultures of the test microbes are diluted to an OD578 of 0.001 (to 0.01 in the case of Enterococci) in fresh test medium, and incubated 1:1 with dilutions of the test substances (1:2 dilution steps) in test medium (150 μl final volume). The cultures are incubated at 37° C. for 18-24 hours; Enterococci in the presence of 5% CO2.
(§9) The lowest substance concentration in each case at which bacterial growth was no longer visible is defined as the MIC. […] The compounds show a graded antibacterial effect against most of the test microbes.

For assay [3], the system named is S. aureus RN4220 Translation. The assay is described as follows: In vitro transcription-translation with S. aureus extracts. The class given is biochemical. Particulars: S30 extract, plasmid p1a template, firefly luciferase, 30° C. 60 min.
Source text: as §1, §2, §3, §4, §5, §6

Assay [4] relates to E. coli MRE600 Translation. The assay is described as follows: In vitro transcription-translation with E. coli extracts. The assay is classed as biochemical, Escherichia coli. Conditions: S30 extract, pBESTLuc template, firefly luciferase, 30° C. 60 min. The method, then:
In Vitro Transcription-Translation with E. coli Extracts
An S30 extract is prepared by harvesting logarithmically growing Escherichia coli MRE 600 (M. Müller; University Freiburg), washing and employing them as described for the in vitro transcription-translation assay (Müller, M. and Blobel, G. Proc Natl Acad Sci USA (1984) 81, pp. 7421-7425).
1 μl of cAMP (11.25 mg/ml) are additionally added per 50 μl of reaction mix to the reaction mix for the in vitro transcription-translation assay. The assay mixture amounts to 105 μl, with 5 μl of the substance to be tested being introduced in 5% strength DMSO. 1 μg/100 pt of mixture of the plasmid pBESTLuc (Promega, Germany) are used as transcription template. After incubation at 30° C. for 60 min, 50 pt of luciferin solution (20 mM tricine, 2.67 mM MgSO4, 0.1 mM EDTA, 33.3 mM DTT pH 7.8, 270 μM CoA, 470 μM luciferin, 530 μM ATP) are added, and the resulting bioluminescence is measured in a luminometer for 1 minute. The IC50 is indicated by the concentration of an inhibitor which leads to 50% inhibition of the translation of firefly luciferase.

Assay [5] has as its system S. aureus RN4220. The assay is described as follows: Minimum inhibitory concentration (MIC), liquid dilution test. The assay is classed as cell-based. Particulars: Staphylococcus aureus, minimal medium with 0.4% BH broth, 37° C., 18-24 h.
Source text: as §7, §8, §9

The subject of assay [6] is S. aureus 25701. The description is as above. Particulars: Staphylococcus aureus, minimal medium with 0.4% BH broth, 37° C., 18-24 h. The class given is cell-based.
Source text: as §7, §8, §9

Assay [7] relates to B. catarrhalis M3. Described as above. The assay is classed as cell-based. Conditions: Moraxella catarrhalis, minimal medium with 0.4% BH broth, 37° C., 18-24 h.
Source text: as §7, §8, §9

In assay [8] the test system is Enterococcus faecalis ICB 27159. The description is as above. The class given is cell-based. Particulars: ICB27159, test medium with 10% heat-inactivated FCS, 5% CO2, 37° C., 18-24 h, read-out: MIC E. faecalis ICB 27159.
Source text: as §7, §8, §9

The term IC50 denotes the point on the concentration scale where inhibition reaches its midpoint. A lower IC50 goes with higher potency. By MIC is commonly meant the lowest concentration found to suppress growth. The molecule “2-Aminoethyl-(8S,11S,14S)-14-amino-11-[(2R)-3-amino-2-hydroxypropyl]-5,17-dihydroxy-9-methyl-10,13-dioxo-9,12-diazatricyclo[14.3.1.1^2,6]henicosa-1(20),2(21),3,5,16,18-hexaene-8-carboxylate trihydrochloride [Example 10]” registered an IC50 in assay [1] of 700 nM. Moreover, the MIC in assay [2] is 3.1 µM.

As to `COC(=O)[C@@H]1Cc2cc(ccc2O)-c2ccc(O)c(c2)C[C@H](N)C(=O)N[C@@H](C[C@@H](O)CN)C(=O)N1` [Example 1, Methyl(8S,11S,14S)-14-amino-11-[(2R)-3-amino-2-hydroxypropyl]-5,17-dihydroxy-10,13-dioxo-9,12-diazatricyclo[14.3.1.1^2,6]henicosa-1(20),2(21),3,5,16,18-hexaene-8-carboxylate dihydrochloride], the IC50 in assay [1] is 500 to 3000 nM; in assay [3], 1700 nM; in assay [4], 500 nM. The MIC in assay [5] was 0.4 µM; in assay [6] it was 12.5 µM; in assay [7], 1.56 µM; in assay [8], 1.56 µM; in assay [2] (Staphylococcus aureus, 133), 3.13 µM.

Take `CCOC(=O)[C@@H]1Cc2cc(ccc2O)-c2ccc(O)c(c2)C[C@H](N)C(=O)N[C@@H](C[C@@H](O)CN)C(=O)N1` [Example 2, Ethyl(8S,11S,14S)-14-amino-11-[(2R)-3-amino-2-hydroxypropyl]-5,17-dihydroxy-10,13-dioxo-9,12-diazatricyclo[14.3.1.1^2,6]henicosa-1(20),2(21),3,5,16,18-hexaene-8-carboxylate dihydrochloride]: the IC50 was 2400 to 4300 nM in assay [1] and 200 nM in assay [4]. Further, the MIC in assay [7] was found to be 6.25 µM; in assay [2] (Staphylococcus aureus, 133), 0.78 µM.
